Source: patent US12415926B2, “Small tunable fluorophores for the detection and imaging of biomolecules” (The University Court of the University of Edinburgh, priority 2019, dated 2025)

Experiments:
HeLa cells [1] = test: TIRF single-particle tracking of intracellular diffusion; assay type: cell-based, human; settings: DMOG-treated (10 μM) vs untreated, 100 μM
Description: (§1) B) Fluorescence emission of live cells after incubation with compound SCOTfluor-84 (100 μM) at different oxygen tensions (normoxia: blue; hypoxia: red) and in normoxic cells after competition with lactic acid (no lactate: red; 5 mM lactate: blue). Values as means and s.e.m as error bars. C) Time-lapse TIRF tracking of fluorescent particles in untreated (top) and DMOG-treated (10 μM, bottom) HeLa cells after incubation with compound SCOTfluor-84 (100 μM). Scale bars: 1 μm. D) Histograms of the diffusion coefficients of fluorescent particles in normoxic (blue) and hypoxic (red) cells. Dotted lines delineate fast and slow diffusion species. Mean diffusion coefficients (D) were determined after averaging the tracks of multiple particles for each condition (n=1,009 for untreated; n=2,906 for DMOG-treated).
Imaging was performed using a home-built, bespoke single-molecule total internal reflection fluorescence (TIRF) microscope. […] Fluorescence collected by the same objective was separated from the returning TIR beam by a dichroic mirror DI02-R514 (Semrock) for 515 nm and was passed through appropriate filters [515 nm: BLP01-561R, FF01-607/36 (Semrock)]. Fluorescence was then passed through a 2.5× beam expander and recorded on an EMCCD camera (Delta Evolve 512, Photometrics) operating in frame transfer mode (EMGain=11.5 e^−/ADU and 250 ADU/photon). […]

Neutrophils = test: Uptake of lactic acid analogue in live cells by flow cytometry (hypoxia/normoxia, lactate competition); assay type: cell-based, human
Description: as §1
Ex vivo experiments with fresh human peripheral blood from healthy donors were approved by the Accredited Medical Regional Ethics Committee (AMREC, reference number 15-HV-013). Peripheral blood polymorphonuclear cells from healthy volunteers were isolated as previously described. Briefly, citrated blood (3.8%) was centrifuged at room temperature at 350 g for 20 min, platelet-rich plasma was removed and separation from erythrocytes was achieved by Dextran sedimentation and fractionation of leukocytes using isotonic Percoll gradient. […] Flow cytometry data were analyzed using FlowJo software. […]

[2] = Optical properties of SCOTfluors (absorbance, emission, extinction coefficient, quantum yield, solvatochromism); assay type: physicochemical
Description: All compounds were dissolved in different organic solvents, including toluene, chloroform, tetrahydrofuran, ethanol, DMSO and water (final concentrations: 10-50 μM). Fluorescence spectra were acquired on a spectrophotometer upon excitation at their maxima absorbance wavelengths.
The optical properties of SCOTfluor-80, 79, 78, 76 and 81 were compared with the properties of the original NBD.

HeLa cells [3] = test: Cytotoxicity assay in HeLa cells; settings: 100 μM and 75 μM (1% DMSO), 4 h at 37° C.
Description: Cell viabilities were normalized to incubation in cell culture media under the same experimental conditions. A solution of 40% DMSO in cell culture media was used as a known cytotoxic positive control. Values represented as means±s.e.m. (n=3).

O=C(O)[C@H](O)CNc1ccc([N+](=O)[O-])c2n[se]nc12 [SCOTfluor-84, (R)-2-hydroxy-3-((7-nitrobenzo[c][1,2,5]selenadiazol-4-yl)amino)propanoic acid]
mean diffusion coefficients of fluorescent particles, hypoxic vs normoxic cells (HeLa cells [1]): higher mean diffusion coefficients
uptake in hypoxic vs normoxic cells (Neutrophils; hypoxic (1% O2) vs normoxic (20% O2), 100 μM): Increased uptake
fluorescence staining under competition with excess lactic acid (Neutrophils; normoxic cells, 5 mM lactic acid): markedly reduced
emission [2]: ~605 nm
cytotoxicity (cell viability) (HeLa cells [3]): no significant cytotoxicity
